Test results from the NIST ThermoML archive (doi:10.1016/j.fluid.2019.03.019).
Numbers after ± are expanded uncertainties.

Conditions: Liquid; for mass density: 298.15 K, 101.33 kPa, Vibrating tube method; for vapor or sublimation pressure: Closed cell (Static) method

SMILES	mass density [kg/m3]	vapor or sublimation pressure (383.15 K) [kPa]	vapor or sublimation pressure (403.15 K) [kPa]	vapor or sublimation pressure (413.15 K) [kPa]	vapor or sublimation pressure (393.15 K) [kPa]	vapor or sublimation pressure (362.65 K) [kPa]	vapor or sublimation pressure (363.15 K) [kPa]	vapor or sublimation pressure (391.95 K) [kPa]	vapor or sublimation pressure (392.95 K) [kPa]	vapor or sublimation pressure (420.95 K) [kPa]	vapor or sublimation pressure (422.95 K) [kPa]	vapor or sublimation pressure (423.15 K) [kPa]
COC(=O)OC [dimethyl carbonate]	1063.24 ± 0.1	187 ± 6	320 ± 6	414 ± 6	–	–	–	–	–	–	–	–
CCO [ethanol]	785.09 ± 0.13	–	–	–	429 ± 7	–	–	–	–	–	–	–
CO [methanol]	786.42 ± 0.13	481 ± 6	843 ± 7	1092 ± 7	640 ± 7	251 ± 6	255 ± 6	618 ± 6	636 ± 7	1316 ± 7	1380 ± 8	1387 ± 8
O [water]	–	–	–	–	199 ± 6	–	–	–	–	–	–	–
